Tested on: de novo fatty acid synthesis
Test: Lipid metabolite profile of plasma, heart, liver and inguinal adipose of CL316,243-treated mice (trial 2; Tables 7 and 8)
Format: in vivo
Settings: for Total n9 / 14:0 / 16:0 / 16:1n7 / 18:0 / 18:1n7 / 18:1n9 / Saturates / Total n7 / Total nMole of FA: mean
Text: It is understood that the described methods can be used to analyze lipid metabolites from other subjects, including particularly animals other than mice.
Mouse tissue and plasma samples were a generous donation to Lipomics Technologies, Inc., from Dr. Edward Leiter of the Jackson Laboratory (Bar Harbor, Me.). Samples included the plasma, heart, liver and inguinal adipose of mice treated with pharmaceuticals or their corresponding controls.
In trial 2, male, inbred NON mice were fed a control with or without the presence of the β-3 adrenergic agonist CL316,243 for four weeks (at 0.001% CL316,243 by weight in the dietary chow).
In both studies, five treated and five control mice were used. Following the treatments and the killing of the mice, tissues and plasma were taken, chilled to −80 ° C. and shipped to the analysis laboratory at Lipomics Technologies in a frozen state.
Tissue processing and lipid extraction, including provision of internal standards, was carried out essentially as described in Watkins et al. (J. Lipid Res. Papers in Press, 10.1184/jlf.M200169-JLF200, published August 16, 2002), and in co-owned international application PCT/US02/21426, entitled “GENERATING, VIEWING, INTERPRETING, AND UTILIZING A QUANTITATIVE DATABASE OF METABOLITES,” both of which are incorporated in their entirety herein by reference.
The separation of lipid classes was performed in some instance by preparative thin-layer chromatography (TLC). To remove any residual metal or other damaging contaminants on the TLC plates, each plate was washed prior to use. Washing the plates is a three-step process that involves impregnating each plate with ethylenediamine tetraacetic acid (EDTA) and rinsing the plates once with methanol and once with chloroform. Each plate is first impregnated with 1 mM EDTA, pH 5.5, by ascending development using the method of Ruiz (J. Lipid Res. 38, 1482-1489, 1997). After each plate was completely developed, it was dried in air overnight. Once dry, each plate was developed in methanol, dried, and developed in chloroform in the same direction as the development with EDTA. The washed plates were then dried in air. Just prior to use, each plate was activated by heating to 110° C. for 10 minutes.
To prepare the TLC chamber for chromatography, Whatman (Clifton, N.J.) filter paper was cut into 20×80-cm strips and wrapped around the inside wall of a 30×60×10-cm glass development chamber. One hundred milliliters of the appropriate mobile phase was added to the chamber, and the chambers were sealed and allowed to equilibrate. Chambers were considered equilibrated when the solvent front had completely ascended the filter paper. The mobile phase employed for the separation of phospholipid classes (lyso-phospholipids, sphingomyelin, phosphatidylcholine, phosphatidylserine, phosphatidylethanolamine and cardiolipin) was a modification of the solvent system described by Holub and Skeaf (“Nutritional regulation of cellular phosphatidylinositol,” in Methods in Enzymology, ed. Conn, P. M. (Academic Press, Inc., Orlando), pp. 234-243, 1987) consisting of chloroform/methanol/acetic acid/water (100:67:7:4, by volume).
For the separation of neutral lipid classes (free fatty acids, free sterols, triacylglycerides and cholesterol esters), a solvent system consisting of petroleum ether/diethyl ether/acetic acid (80:20:1, by volume) was used (Mangold, Thin Layer Chromatography—A Laboratory Handbook (Springer-Verlag, New York), 1969).
After the TLC plate was activated, the sample extracts were spotted onto the activated plate. As a general rule, samples were spotted at an estimated concentration such that no single lipid class was present at more than 25 jig per centimeter of plate width following chromatography. This ensured that the plate was not overloaded and minimized the risk of cross-contamination between lipid classes (cross-contamination is readily identified during sample analysis as each lipid class contains unique internal standards). […]

SMILES: C[C@H](Cc1ccc2c(c1)OC(C(=O)[O-])(C(=O)[O-])O2)NC[C@H](O)c1cccc(Cl)c1.[Na+].[Na+] [CL316,243]
- Total n9 (Liver, lipid class PS/I): 5.4 percentage of total fatty acids
- 14:0 (Liver, lipid class TAG): 1.1 percentage of total fatty acids
- 16:0 (Liver, lipid class TAG): 32.1 percentage of total fatty acids
- 16:1n7 (Liver, lipid class TAG): 3.2 percentage of total fatty acids
- 18:0 (Liver, lipid class TAG): 3.3 percentage of total fatty acids
- 18:1n7 (Liver, lipid class TAG): 2.9 percentage of total fatty acids
- 18:1n9 (Liver, lipid class TAG): 34.1 percentage of total fatty acids
- 14:0 (Plasma, CE): 21.2 nanomoles per gram
- 16:0 (Plasma, CE): 114.4 nanomoles per gram
- 16:1n7 (Plasma, CE): 84.9 nanomoles per gram
- 18:0 (Plasma, CE): 16.5 nanomoles per gram
- 18:1n7 (Plasma, CE): 13.5 nanomoles per gram
- 18:1n9 (Plasma, CE): 194.2 nanomoles per gram
- Saturates (Plasma, CE): 162.9 nanomoles per gram
- Total n7 (Plasma, CE): 98.4 nanomoles per gram
- Total n9 (Plasma, CE): 198.7 nanomoles per gram
- Total nMole of FA (Plasma, CE): 2584.1 nanomoles per gram
- 14:0 (Plasma, FFA): 22.1 nanomoles per gram
- 16:0 (Plasma, FFA): 102.3 nanomoles per gram
- 16:1n7 (Plasma, FFA): 15.4 nanomoles per gram
- 18:0 (Plasma, FFA): 36.9 nanomoles per gram
- 18:1n7 (Plasma, FFA): 9.8 nanomoles per gram
- 18:1n9 (Plasma, FFA): 160.6 nanomoles per gram
- Saturates (Plasma, FFA): 167.7 nanomoles per gram
- Total n7 (Plasma, FFA): 25.2 nanomoles per gram
- Total n9 (Plasma, FFA): 163.1 nanomoles per gram
- Total nMole of FA (Plasma, FFA): 424.7 nanomoles per gram
- 14:0 (Plasma, LysoPC): 2.9 nanomoles per gram
- 16:0 (Plasma, LysoPC): 241.6 nanomoles per gram
- 16:1n7 (Plasma, LysoPC): 4.8 nanomoles per gram
- 18:0 (Plasma, LysoPC): 127.4 nanomoles per gram
- 18:1n7 (Plasma, LysoPC): 6.9 nanomoles per gram
- 18:1n9 (Plasma, LysoPC): 47.5 nanomoles per gram
- Saturates (Plasma, LysoPC): 381.9 nanomoles per gram
- Total n7 (Plasma, LysoPC): 11.8 nanomoles per gram
- Total n9 (Plasma, LysoPC): 49.4 nanomoles per gram
- Total nMole of FA (Plasma, LysoPC): 643.1 nanomoles per gram
- 14:0 (Plasma, PC): 5.5 nanomoles per gram
- 16:0 (Plasma, PC): 1121.4 nanomoles per gram
- 16:1n7 (Plasma, PC): 15.3 nanomoles per gram
- 18:0 (Plasma, PC): 670.9 nanomoles per gram
- 18:1n7 (Plasma, PC): 58.8 nanomoles per gram
- 18:1n9 (Plasma, PC): 309.6 nanomoles per gram
- Saturates (Plasma, PC): 1820.6 nanomoles per gram
- Total n7 (Plasma, PC): 74.0 nanomoles per gram
- Total n9 (Plasma, PC): 320.0 nanomoles per gram
- Total nMole of FA (Plasma, PC): 1928.9 nanomoles per gram
- 14:0 (Plasma, PE): 4.1 nanomoles per gram
- 16:0 (Plasma, PE): 33.9 nanomoles per gram
- 16:1n7 (Plasma, PE): 3.3 nanomoles per gram
- 18:0 (Plasma, PE): 28.2 nanomoles per gram
- 18:1n7 (Plasma, PE): 2.5 nanomoles per gram
- 18:1n9 (Plasma, PE): 31.5 nanomoles per gram
- Saturates (Plasma, PE): 74.0 nanomoles per gram
- Total n7 (Plasma, PE): 5.8 nanomoles per gram
- Total n9 (Plasma, PE): 33.4 nanomoles per gram
- Total nMole of FA (Plasma, PE): 106.7 nanomoles per gram
- 14:0 (Plasma, PL): 7.6 nanomoles per gram
- 16:0 (Plasma, PL): 1315.0 nanomoles per gram
- 16:1n7 (Plasma, PL): 20.3 nanomoles per gram
- 18:0 (Plasma, PL): 847.2 nanomoles per gram
- 18:1n7 (Plasma, PL): 69.7 nanomoles per gram
- 18:1n9 (Plasma, PL): 380.8 nanomoles per gram
- Saturates (Plasma, PL): 2221.2 nanomoles per gram
- Total n7 (Plasma, PL): 90.0 nanomoles per gram
- Total n9 (Plasma, PL): 429.4 nanomoles per gram
- Total nMole of FA (Plasma, PL): 2464.5 nanomoles per gram
- 14:0 (Plasma, TAG): 17.6 nanomoles per gram
- 16:0 (Plasma, TAG): 219.3 nanomoles per gram
- 16:1n7 (Plasma, TAG): 33.1 nanomoles per gram
- 18:0 (Plasma, TAG): 45.7 nanomoles per gram
- 18:1n7 (Plasma, TAG): 23.7 nanomoles per gram
- 18:1n9 (Plasma, TAG): 268.3 nanomoles per gram
- Saturates (Plasma, TAG): 295.4 nanomoles per gram
- Total n7 (Plasma, TAG): 56.8 nanomoles per gram
- Total n9 (Plasma, TAG): 276.2 nanomoles per gram
- Total nMole of FA (Plasma, TAG): 344.8 nanomoles per gram
- 14:0 (Plasma, lipid class CE): 0.8 percentage of total fatty acids
- 16:0 (Plasma, lipid class CE): 4.5 percentage of total fatty acids
- 16:1n7 (Plasma, lipid class CE): 3.2 percentage of total fatty acids
- 18:0 (Plasma, lipid class CE): 0.7 percentage of total fatty acids
- 18:1n7 (Plasma, lipid class CE): 0.5 percentage of total fatty acids
- 18:1n9 (Plasma, lipid class CE): 7.5 percentage of total fatty acids
- 14:0 (Plasma, lipid class FFA): 5.7 percentage of total fatty acids
- 16:0 (Plasma, lipid class FFA): 28.1 percentage of total fatty acids
- 16:1n7 (Plasma, lipid class FFA): 3.2 percentage of total fatty acids
- 18:0 (Plasma, lipid class FFA): 10.0 percentage of total fatty acids
- 18:1n7 (Plasma, lipid class FFA): 2.1 percentage of total fatty acids
- 18:1n9 (Plasma, lipid class FFA): 31.0 percentage of total fatty acids
- 14:0 (Plasma, lipid class LY): 0.5 percentage of total fatty acids
- 16:0 (Plasma, lipid class LY): 37.8 percentage of total fatty acids
- 16:1n7 (Plasma, lipid class LY): 0.7 percentage of total fatty acids
- 18:0 (Plasma, lipid class LY): 20.1 percentage of total fatty acids
- 18:1n7 (Plasma, lipid class LY): 1.0 percentage of total fatty acids
- 18:1n9 (Plasma, lipid class LY): 7.2 percentage of total fatty acids
- 14:0 (Plasma, lipid class PC): 0.1 percentage of total fatty acids
- 16:0 (Plasma, lipid class PC): 29.0 percentage of total fatty acids
- 16:1n7 (Plasma, lipid class PC): 0.4 percentage of total fatty acids
- 18:0 (Plasma, lipid class PC): 17.5 percentage of total fatty acids
- 18:1n7 (Plasma, lipid class PC): 1.5 percentage of total fatty acids
- 18:1n9 (Plasma, lipid class PC): 7.9 percentage of total fatty acids
- 14:0 (Plasma, lipid class PE): 1.9 percentage of total fatty acids
- 16:0 (Plasma, lipid class PE): 16.1 percentage of total fatty acids
- 16:1n7 (Plasma, lipid class PE): 1.4 percentage of total fatty acids
- 18:0 (Plasma, lipid class PE): 13.5 percentage of total fatty acids
- 18:1n7 (Plasma, lipid class PE): 1.1 percentage of total fatty acids
- 18:1n9 (Plasma, lipid class PE): 13.1 percentage of total fatty acids
- 14:0 (Plasma, lipid class PL): 0.2 percentage of total fatty acids
- 16:0 (Plasma, lipid class PL): 26.6 percentage of total fatty acids
- 16:1n7 (Plasma, lipid class PL): 0.4 percentage of total fatty acids
- 18:0 (Plasma, lipid class PL): 17.3 percentage of total fatty acids
- 18:1n7 (Plasma, lipid class PL): 1.4 percentage of total fatty acids
- 18:1n9 (Plasma, lipid class PL): 7.7 percentage of total fatty acids
- 14:0 (Plasma, lipid class TAG): 1.7 percentage of total fatty acids
- 16:0 (Plasma, lipid class TAG): 21.1 percentage of total fatty acids
- 16:1n7 (Plasma, lipid class TAG): 3.2 percentage of total fatty acids
- 18:0 (Plasma, lipid class TAG): 4.4 percentage of total fatty acids
- 18:1n7 (Plasma, lipid class TAG): 2.3 percentage of total fatty acids
- 18:1n9 (Plasma, lipid class TAG): 25.8 percentage of total fatty acids
- palmitoleic acid concentrations in most lipid classes in heart, liver, adipose and plasma (male inbred NON mice, 0.001% CL316,243 in chow 4 weeks, vs controls (Tables 7 and 8)): substantial decrease
